Assay [1] relates to RAW264.7. Description: Antiinflammatory activity in LPS-stimulated mouse RAW264.7 cells assessed as inhibition of beta-gal-tagged COX2 promoter activity pretreated 30 mins before LPS administration measured after 24 hrs by luciferase reporter gene assay relative to control. In kind it is functional, cell-based.
In assay [2] the test system is RAW264.7. Description: Antiinflammatory activity in LPS-stimulated mouse RAW264.7 cells assessed as inhibition of COX2 protein expression at 10 to 100 uM pretreated 30 mins before LPS administration measured after 24 hrs by Western blot analysis. Format: functional, cell-based.

The term pIC50 denotes the IC50 on a negative log10 scale, so that one unit is a factor of ten.

pIC50: −log10 of the molar value. Active and inactive are the calls of the source. The rule behind the calls is not given here.

As for `C=C1C(=O)[C@@]23[C@@H]4C[C@H]5C(=CCC5(C)C)[C@@](C)(O4)[C@@H]2CC[C@@H]1[C@H]3O` [CROTONKINENSIN B], in the assay on RAW264.7 [1], the negative-log IC50 (pIC50) was 5.26 and the inhibition result was “Dose-dependent effect”. The inhibition result with RAW264.7 [2] was “Active”.
On to `C=C1C(=O)[C@@]23[C@@H]4CC5=C(C(=O)CC5(C)C)[C@@](C)(O4)[C@@H]2CC[C@@H]1[C@H]3O` [CROTONKINENSIN A], for which, in the assay on RAW264.7 [1], the pIC50 was 5.15 and the inhibition entry was “Dose-dependent effect”. For the same compound, the inhibition entry in the assay with RAW264.7 [2] was “Active”.

For the origin of these results see ChEMBL document CHEMBL1153727, “Crotonkinensins A and B, diterpenoids from the Vietnamese medicinal plant Croton tonkinensis” (J Nat Prod, 2009).
